Values quoted from earlier work in patent US9011898B2, “Composition for active principles delivery containing a fatty acid excipient” (CID S.p.A., priority 2010, dated 2015).

Conditions: aqueous solutions

SMILES: CO[C@H]1C[C@@H]2CC[C@@H](C)[C@@](O)(O2)C(=O)C(=O)N2CCCC[C@H]2C(=O)O[C@H]([C@H](C)C[C@@H]2CC[C@@H](O)[C@H](OC)C2)CC(=O)[C@H](C)/C=C(\C)[C@@H](O)[C@@H](OC)C(=O)[C@H](C)C[C@H](C)/C=C/C=C/C=C/1C [Sirolimus]
- Stability in aqueous environments at neutral or basic pH with respect to acidic pH: less stable
